As usually defined, the IC50 is the point on the concentration scale where inhibition reaches its midpoint. Low readings indicate inhibition by little substance, high ones a need for much substance. Usually inhibition stands for the change of the read-out against control, counted positive when it falls.

A short description of assay [1]: DPPH free radical scavenging (antioxidant) assay. As to conditions: for DPPH percent inhibition: mean ± SEM, n = 3. How it is done: The previously outlined methodology will be employed to evaluate the compounds’ antioxidant ability, as determined by the processes of the 1,1-diphenyl, 2-picrylhydrazyl (DPPH) free radical. The experimental specimens will be subjected to dilution using different quantities, spanning from 62.5 to 1000 μg/ml, and afterwards introduced into a methanolic solution of DPPH at a concentration of 0.004%. At 517 nm, the absorbance will be determined by a UV spectrophotometer following a 30-minute duration. The scavenging capability of ascorbic acid will be quantified by employing the equation: DPPH=[(A0−A1)/A0]100 Whereas: […]
Every test was carried out three times, and the median inhibitory dosages (IC50) were determined. The drawing of inhibition graphs was performed by GraphPad Prism software-GraphPAD, San Diego, California, USA.
The IC50 values were determined from dosage response curve using Microsoft Excel program.
On the technique in general: The DPPH test is a chemical assay of radical scavenging.

The subject of assay [2] is paw edema. As to conditions: dose dependent manner; cited from earlier work.
Assay [3] has as its system 5-LOX. As to conditions: cited from earlier work.
Assay [4] deals with COX. As to conditions: cited from earlier work.
In assay [5] the test system is tumor growth. As to conditions: in vivo and in vitro; cited from earlier work.
The target of assay [6] is T1, 5-lipoxygenase (5-LOX) enzyme (Homo sapiens, UniProt P09917).
T1 sequence (P09917 1-674): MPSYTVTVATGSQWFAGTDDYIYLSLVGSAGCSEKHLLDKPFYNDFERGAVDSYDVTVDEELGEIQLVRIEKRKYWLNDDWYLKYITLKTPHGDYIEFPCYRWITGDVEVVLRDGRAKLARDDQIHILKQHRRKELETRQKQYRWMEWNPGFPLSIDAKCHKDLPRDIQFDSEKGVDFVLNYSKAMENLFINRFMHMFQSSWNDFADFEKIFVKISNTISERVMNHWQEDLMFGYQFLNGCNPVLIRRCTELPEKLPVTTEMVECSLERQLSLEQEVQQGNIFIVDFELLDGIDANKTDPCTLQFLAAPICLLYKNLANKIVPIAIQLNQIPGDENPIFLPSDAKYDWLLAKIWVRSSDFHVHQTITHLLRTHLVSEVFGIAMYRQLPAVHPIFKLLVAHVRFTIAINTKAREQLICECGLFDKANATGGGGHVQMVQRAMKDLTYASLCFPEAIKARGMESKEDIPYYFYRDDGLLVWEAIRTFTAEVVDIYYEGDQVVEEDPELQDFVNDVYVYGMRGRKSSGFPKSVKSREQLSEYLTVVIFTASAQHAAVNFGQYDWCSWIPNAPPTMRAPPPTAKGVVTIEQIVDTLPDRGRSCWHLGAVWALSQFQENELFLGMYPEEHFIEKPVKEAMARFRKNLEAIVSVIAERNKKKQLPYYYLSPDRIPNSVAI
Nature of the assay: 5-LOX inhibitory assay. Format: biochemical. As to conditions: for inhibition at 62.5 µg/mL: 62.5 μg/ml; for inhibition at 62.5 µg/mL / inhibition at 125 µg/mL / inhibition at 250 µg/mL / inhibition at 500 µg/mL / inhibition at 1000 µg/mL: mean ± SEM, n = 3, read-out: 5-LOX percent inhibition; for inhibition at 125 µg/mL: 125 μg/ml; for inhibition at 250 µg/mL: 250 μg/ml; for inhibition at 500 µg/mL: 500 μg/ml; for inhibition at 1000 µg/mL: 1000 μg/ml. The procedure:
The synthesized Isoxazole derivatives will be investigated for 5-LOX Inhibition studies as per established protocols of Wisastra and his co researchers. In this experiment, residual enzyme potential will be utilized to measure the degree of enzyme inhibition after 10 to 15 minutes of inhibitor’s incubation at 25°C. The reaction involving the conversion of linoleic acid, a substrate of lipoxygenase, into hydroperoxy-octadecadienoate (HPOD) will be employed as a means of quantifying the said reaction. The variation in the rate of absorption will be determined by employing a UV-visible spectrophotometer set at a wavelength of 234 nm. A 50 mM Tris buffer containing 2 mM EDTA and 2 mM CaCl2 was used as the assay buffer in this experiment. The buffer has a pH of 7.5. Following this, a buffer solution was employed to dilute the 5-lipoxygenase (5-LOX) enzyme at a concentration of 20,000 units per millilitre (U/mL) at a ratio of 1:4000. The 100 mM inhibitor was diluted using the test buffer following the administration of dimethyl sulfoxide (DMSO) for its dissolution. The content of linoleic acid was reduced to 20 mg/ml through dilution using ethyl alcohol. To accomplish this, 1 mL of the enzyme solution (1: 4000) will be combined with 100 μL of 2 mM adenosine triphosphate (ATP), 100 μL of the inhibitor (1 mM), and […] of Tris buffer while incubated for 10 min. Following approximately 10 seconds of the substrate and the enzyme mixing together, 10 μL of a 20 mM substrate solution will be added to the mixture. At that point, the changing rate of the substrate will be determined. The response rate will be utilized as a positive control without blockers. In this experiment, montelukast will be utilized as the reference medicine.

In the case of `O=C1O[C@H]([C@@H](O)CO)C(O)=C1O` [Ascorbic acid, reference compound], the IC50 in assay [1] stood at 17.9 µM. Moreover, the DPPH percent inhibition came out at 77.72±0.59% in assay [1] (62.5 μg/mL); 79.37±0.71% in assay [1] (125 μg/mL); 82.25±0.72% in assay [1] (250 μg/mL); 87.65±0.42% in assay [1] (500 μg/mL); 92.51±0.69% in assay [1] (1000 μg/mL).
With `CCO/C(C)=N/c1onc(C)c1C(=O)NCc1ccc(OC)cc1OC` [Compound 64], in assay [2], the “inhibition of paw edema” value is listed as “strongly inhibited”.
For `COc1cc(-c2cc(-c3sccc3C)no2)cc(OC)c1OC` [Compound 65], in assay [3], the “activity of 5-LOX” value is recorded as “considerably reduce”. For the same compound, the “activity of COX” value in assay [4] is “considerably reduce”. The “inhibition on tumor growth” value in assay [5] is recorded as “excellent inhibition”.
Consider `COc1ccc(C2NC(=O)NC(C(F)(F)F)=C2c2cc(-c3ccco3)on2)cc1` (stereo not shown) [Compound C6], for which, in assay [6], the IC50 came to 3.67 µM, the inhibition at 62.5 µg/mL came to 81.9 ± 0.96%, the inhibition at 125 µg/mL is 85.08 ± 0.47% and the inhibition at 250 µg/mL was 88.8 ± 1.26%. For the same compound, in assay [6], the inhibition at 500 µg/mL was found to be 91.4 ± 0.2% and the inhibition at 1000 µg/mL is 94.6 ± 1.12%. Further, 18.9 µM corresponded to half-maximal inhibition in assay [1] (IC50). In assay [1] (62.5 μg/mL), this compound had a DPPH percent inhibition of 73.72±0.64%. This compound also returned a DPPH percent inhibition in assay [1] (125 μg/mL) of 78.42±0.66%. In assay [1] (250 μg/mL), the DPPH percent inhibition is given as 83.53±0.45%. Moreover, in assay [1] (500 μg/mL), the DPPH percent inhibition was 88.45±0.49%. The compound further had a DPPH percent inhibition in assay [1] (1000 μg/mL) of 91.63±0.55%.
As for `CC(C)(O)c1ccccc1CC[C@@H](SCC1(CC(=O)O)CC1)c1cccc(/C=C/c2ccc3ccc(Cl)cc3n2)c1` [Montelukast, reference compound], in assay [6], half-maximal inhibition (IC50) required 21.8 µM, the inhibition at 62.5 µg/mL amounted to 71.8 ± 0.9%, the inhibition at 125 µg/mL amounted to 76.4 ± 1.2% and the inhibition at 250 µg/mL is 81.6 ± 1.63%. Moreover, in assay [6], the inhibition at 500 µg/mL came out at 87.5 ± 0.9% and the inhibition at 1000 µg/mL stood at 94.1 ± 1.04%.

These data come from paper PMC11452043, “In vitro 5-LOX inhibitory and antioxidant potential of isoxazole derivatives” (PLOS ONE, 2024).
